From article PMC7093416, “Selective USP7 inhibition elicits cancer cell killing through a p53-dependent mechanism” (Scientific Reports, 2020) come the findings set out here.

The target of one test is T1, USP7-Q351S (Homo sapiens, UniProt Q93009, Q351S).
T1 construct: made in house
In words: Ub-AMC enzymatic assay, USP7-Q351S mutant. It counts as biochemical. As to conditions: 6-hr pre-incubation. On the procedure:
Full length USP7 was tested for its activity in Ubiquitin-AMC assay in presence or absence of inhibitors. USP7 (5 nM) was pre-incubated for 6 hours at room temperature with different concentrations of inhibitors or DMSO as a control in 50 mM HEPES pH 7.5, 0.5 mM EDTA, 11 uM ovalbumin, and 5 mM DTT. Ubiquitin-AMC (Boston Biochem) was then added to a final concentration of 500 nM. The initial rate of the reaction was measured by collecting fluorescence data at one minute intervals over 30-minute period using a Clariostar fluorescence plate reader at excitation and emission wavelength of 345 and 445 nm respectively. The calculated initial rate values were plotted against inhibitor concentrations to determine IC50s. All the experimental data were plotted using Prism GraphPad. All assays for each compound were performed at least twice for each compound.

For the next test, the target named is T2, USP7 catalytic domain (Homo sapiens, UniProt Q93009).
T2 construct: catalytic domain (208–560) used were cloned as described; inferred from Ni-NTA purification; made in house; host or cells: E. coli BL21 (DE3)
In words: Intact MS / CE-MS labeling of purified USP7 catalytic domain. In kind it is binding. The settings on record: 2.5-fold molar excess compound. As for the experimental part:
Purified USP7 catalytic domain was diluted to 20 μM in 10 μL labeling buffer (20 mM HEPES pH 7.5, 150 mM NaCl, 1 mM TCEP) and incubated for the indicated times with 50 μM (2.5×) compound. After incubation, samples were flash frozen in liquid nitrogen and stored at −80 °C until analysis.
Intact mass analysis was performed by injecting 5 µg USP7 catalytic domain onto a self-packed reversed phase column (1/32” O.D. × 500 um I.D., 5 cm of POROS 10R2 resin). After desalting, protein was eluted with an HPLC gradient (0–100% B in 4 minutes, A = 0.2 M acetic acid in water, B = 0.2 M acetic acid in acetonitrile, flow rate ~30 µL/min) into an LTQ ion trap mass spectrometer (ThermoFisher Scientific, San Jose, CA). Mass spectra were processed using MagTran1.03b2[52].
Peptides were desalted using SP3[53], dried by vacuum centrifugation, and reconstituted in 1% formic acid/50% acetonitrile with 100 mM ammonium acetate. Peptides were then analyzed by CE-MS using a ZipChip CE system and autosampler (908 Devices, Boston, MA) interfaced to a QExactive HF mass spectrometer (ThermoFisher Scientific, San Jose, CA). Peptide solution was loaded for 30 seconds, and the mass spectrometer was operated in data dependent mode and subjected the 5 most abundant ions in each MS scan (60k resolution, 3E6 target, lock mass enabled) to MS/MS (15k resolution, 1E5 target, 100 ms max inject time). […]

For another test, the target named is USP7 (Homo sapiens, UniProt Q93009). In words: In vitro DUB profiling (Ubiquigent, Ub-Rho), USP7. It counts as biochemical. The settings on record: 1 µM, 15-minute pre-treatment. As for the experimental part:
(§1) Compounds were screened using the Ubiquigent Drug Profiler SPT system (www.ubiquigent.com/drug-discovery-services/dubprofiler/). Each of 41 purified DUBs was incubated with compound for 15 minutes, then ubiquitin rhodamine 110 (Ub-Rho) was added and percent inhibition determined based on fluorescence relative to a DMSO control.

For test [1], the system named is panel of 41 recombinant DUBs. In words: In vitro DUB profiling (Ubiquigent, Ub-Rho), other DUBs of the panel. In kind it is biochemical. The settings on record: 1 µM, 15-minute pre-treatment. As for the experimental part:
as §1

In another test the test system is MCF7 cells. In words: Cell cycle analysis by propidium iodide staining. It counts as cell-based. As to conditions: 1 μM, 24 hours. On the procedure:
For propidium iodide (PI) staining, treated cells (~1 million per condition) were washed with cold PBS, then fixed in 80% ethanol overnight at −20 °C. After fixing, cells were pelleted, washed with PBS, and reconstituted in 500 μL FxCycle PI / RNAse A staining solution (Thermo Fisher). Cells were stored overnight at 4 °C and analyzed using a BD Fortessa flow cytometer.

Each structure is given as a SMILES string.

USP7, sequence (Q93009 whole entry): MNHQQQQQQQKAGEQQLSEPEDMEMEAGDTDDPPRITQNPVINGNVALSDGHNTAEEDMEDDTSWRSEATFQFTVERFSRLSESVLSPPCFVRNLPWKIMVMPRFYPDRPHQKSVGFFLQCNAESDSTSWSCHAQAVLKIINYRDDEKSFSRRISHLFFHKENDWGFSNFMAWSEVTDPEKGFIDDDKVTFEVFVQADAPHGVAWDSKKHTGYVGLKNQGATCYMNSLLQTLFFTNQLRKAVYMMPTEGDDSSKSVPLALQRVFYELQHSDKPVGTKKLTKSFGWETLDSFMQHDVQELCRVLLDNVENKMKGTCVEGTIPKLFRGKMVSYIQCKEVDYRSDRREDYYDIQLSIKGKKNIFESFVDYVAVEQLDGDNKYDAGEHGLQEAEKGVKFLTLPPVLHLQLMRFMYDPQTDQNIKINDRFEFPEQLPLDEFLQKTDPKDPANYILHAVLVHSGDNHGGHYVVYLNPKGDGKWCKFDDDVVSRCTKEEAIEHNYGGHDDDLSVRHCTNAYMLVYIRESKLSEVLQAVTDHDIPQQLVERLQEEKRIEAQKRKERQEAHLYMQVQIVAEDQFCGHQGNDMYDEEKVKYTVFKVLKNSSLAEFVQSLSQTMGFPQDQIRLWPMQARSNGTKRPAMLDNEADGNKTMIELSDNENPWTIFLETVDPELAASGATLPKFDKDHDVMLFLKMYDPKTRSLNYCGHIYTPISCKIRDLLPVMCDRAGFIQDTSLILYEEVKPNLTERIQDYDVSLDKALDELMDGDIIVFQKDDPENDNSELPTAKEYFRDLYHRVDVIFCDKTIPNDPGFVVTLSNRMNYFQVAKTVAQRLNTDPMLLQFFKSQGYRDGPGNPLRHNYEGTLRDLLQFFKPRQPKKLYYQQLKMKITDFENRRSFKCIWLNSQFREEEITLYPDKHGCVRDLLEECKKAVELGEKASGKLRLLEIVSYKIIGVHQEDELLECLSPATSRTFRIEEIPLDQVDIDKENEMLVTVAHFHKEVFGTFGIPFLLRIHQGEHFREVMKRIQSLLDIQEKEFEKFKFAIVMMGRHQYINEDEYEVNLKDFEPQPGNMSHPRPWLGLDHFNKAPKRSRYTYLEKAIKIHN
T1 sequence (Q93009 whole entry Q351S): as the sequence (Q93009 whole entry) above, with Q351S counted along it
T2 sequence (Q93009 208-560): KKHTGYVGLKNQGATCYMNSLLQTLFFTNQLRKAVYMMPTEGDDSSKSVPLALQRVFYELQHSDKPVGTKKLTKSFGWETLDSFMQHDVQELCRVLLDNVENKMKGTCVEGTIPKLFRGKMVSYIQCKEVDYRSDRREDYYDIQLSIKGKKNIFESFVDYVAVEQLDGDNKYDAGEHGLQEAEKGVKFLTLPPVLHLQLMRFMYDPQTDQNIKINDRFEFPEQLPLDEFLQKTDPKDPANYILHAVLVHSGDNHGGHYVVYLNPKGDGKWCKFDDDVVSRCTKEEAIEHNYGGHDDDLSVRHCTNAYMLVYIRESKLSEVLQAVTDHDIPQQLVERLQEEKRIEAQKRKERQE

A word on the IC50: it is the concentration at which inhibition is half-maximal. Lower therefore signals greater potency in that assay. As to `CN1CCN(CCC(=O)Nc2ccc3c(=O)n(CC4(O)CCN(C(=O)[C@@H](CCCNC(=O)c5ccc6c(Cl)c7c(nc6c5)CCCC7)Cc5ccccc5)CC4)cnc3c2)CC1` [XL177A], the IC50 on USP7-Q351S worked out at 189 nM. Besides, the “labeling of USP7 catalytic domain by MS” value at USP7 catalytic domain is “Quantitative labeling”. For the same molecule, the USP7 enzymatic activity entry at USP7 is recorded as “completely inhibited”. For the same molecule, the “activity against any other DUBs” value in test [1] was “did not exhibit significant activity”. For the same molecule, in the test with MCF7 cells, the cell cycle effect result is “complete G1 arrest”.
